Assay [1] addresses T1, Muscarinic acetylcholine receptor M1 (Rattus norvegicus) (UniProt P08482).
T1 sequence (whole entry): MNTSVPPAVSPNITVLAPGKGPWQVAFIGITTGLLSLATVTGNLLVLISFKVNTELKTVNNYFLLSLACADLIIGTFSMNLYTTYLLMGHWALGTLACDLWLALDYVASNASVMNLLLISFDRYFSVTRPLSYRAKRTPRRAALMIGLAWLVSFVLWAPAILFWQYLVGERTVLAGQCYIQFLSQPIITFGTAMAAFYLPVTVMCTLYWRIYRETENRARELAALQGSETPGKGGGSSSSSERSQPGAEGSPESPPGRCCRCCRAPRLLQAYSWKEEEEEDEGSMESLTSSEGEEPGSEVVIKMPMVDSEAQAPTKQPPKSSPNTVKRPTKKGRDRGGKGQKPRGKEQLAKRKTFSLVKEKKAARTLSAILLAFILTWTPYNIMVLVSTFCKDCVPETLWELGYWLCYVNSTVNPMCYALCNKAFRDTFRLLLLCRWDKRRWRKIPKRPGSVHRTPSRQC
Conditions: Cervical ganglion.

In assay [2] the target is Muscarinic acetylcholine receptor M3 (Cavia porcellus) (UniProt Q8VH26). Conditions: Ileum.
Description: Peripheral postsynaptic muscarinic activity by contraction of the guinea pig ileum.
Assay [3] addresses T2, Muscarinic acetylcholine receptor M1 (Rattus norvegicus, UniProt P08482).
T2 sequence (P08482 whole entry): T1 sequence (whole entry)
Description: Ability to displace [3H]pirenzepine (pir) from muscarinic acetylcholine receptor M1 in rat cortical tissue.

Assay [4] addresses Muscarinic acetylcholine receptor.
Description: Ability to displace [3H]cis--2-methyl-5-((dimethylamino)methyl)-1,3-di oxolane from muscarinic acetylcholine receptor in rat cortical tissue.
Assay [5] addresses T1, Muscarinic acetylcholine receptor M1 (Rattus norvegicus). As to conditions: Hippocampus.
For assay [6], the target named is Muscarinic acetylcholine receptor M3 (Cavia porcellus) (UniProt Q8VH26). Kind of assay: (§1) Peripheral postsynaptic muscarinic activity was measured by contraction of the guinea pig ileum in M3 model. In kind it is functional, tissue-based.
The target in assay [7] is T1, Muscarinic acetylcholine receptor M1 (Rattus norvegicus). The experiment in a line: Central postsynaptic muscarinic activity was measured relative to muscurine (100%). The assay is classed as functional, tissue-based.
For assay [8] the target is unchanged. Kind of assay: Central postsynaptic muscarinic activity was measured by slow depolarization of the rat cervical ganglion in M1 model. In kind it is functional, tissue-based.
Assay [9] is described as follows: Ratio of binding affinities towards muscarinic receptor using Pir to that of CD as radioligand.
Assay [10] deals with Muscarinic acetylcholine receptor M3 (Cavia porcellus) (UniProt Q8VH26). The experiment in a line: Peripheral postsynaptic muscarinic activity was measured relative to muscarine (100%). The assay is classed as functional.
For assay [11], the target named is T2, Muscarinic acetylcholine receptor M1. Kind of assay: Compound was tested for its ability to displace [3H]pirenzepine (pir) from M1 Muscarinic receptor in rat cortical tissue.
The target of assay [12] is Muscarinic acetylcholine receptor. The source holds these as a separate data set.
Assay [13] has as its target T1, Muscarinic acetylcholine receptor M1 (Rattus norvegicus). The experiment in a line: Neuronal postsynaptic muscarinic activity was measured by firing rate of the rat hippocampal CA1 neurons in M1 model. As to conditions: Hippocampus. In kind it is functional, tissue-based.
The next assay is filed under the species Cavia porcellus. The description is as §1. In kind it is functional.

The term IC50 denotes the concentration that gives 50% inhibition.

Muscarinic acetylcholine receptor M3 (Cavia porcellus), sequence (Q8VH26 1-587): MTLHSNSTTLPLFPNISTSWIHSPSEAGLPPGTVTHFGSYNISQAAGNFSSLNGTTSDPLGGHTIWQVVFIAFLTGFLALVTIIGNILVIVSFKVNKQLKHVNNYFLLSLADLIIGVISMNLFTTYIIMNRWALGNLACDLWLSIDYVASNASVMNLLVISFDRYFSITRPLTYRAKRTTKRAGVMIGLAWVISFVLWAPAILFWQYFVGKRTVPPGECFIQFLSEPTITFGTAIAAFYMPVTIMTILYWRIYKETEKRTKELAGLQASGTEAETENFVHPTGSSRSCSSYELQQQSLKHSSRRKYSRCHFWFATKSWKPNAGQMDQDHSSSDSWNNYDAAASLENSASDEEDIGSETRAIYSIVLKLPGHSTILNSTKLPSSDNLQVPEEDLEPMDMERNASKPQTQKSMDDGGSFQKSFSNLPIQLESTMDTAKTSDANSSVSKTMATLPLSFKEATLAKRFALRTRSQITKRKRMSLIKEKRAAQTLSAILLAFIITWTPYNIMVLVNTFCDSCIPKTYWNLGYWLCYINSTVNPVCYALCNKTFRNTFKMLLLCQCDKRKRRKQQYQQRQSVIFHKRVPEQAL

Take `CC[C@H]1C(=S)SC[C@@H]1Cc1cncn1C`: the pD2 in assay [1] was found to be 5.2; in [2], 5.6. The results for the IC50 in [3] and in assay [4] were 51 nM and 45 nM, respectively.
For `C[C@@H]1O[C@H](C[N+](C)(C)C)C[C@H]1O`, the pD2 is 7.4 in assay [1], 5.9 in assay [5] and 6.8 in [2].
As for `CC[C@@H]1C(=O)N(C)C[C@@H]1Cc1cncn1C`, the pD2 in assay [1] stood at 100; in [2] it was 4.2. The IC50 amounted to 10200 nM in assay [3] and 4600 nM in assay [4].
For the molecule `C[N+](C)(C)CCOC(N)=O`, the figures for the pD2 in assay [1], in assay [5] and in assay [2] were 7.2, 6 and 6.7, respectively.
Turning to `CC[C@@H]1C(O)OC[C@@H]1Cc1cncn1C` (stereo partly specified), the pD2 is 5.2 in assay [6], 5.9 in assay [8] and below 4 in assay [13]. Also, the Efficiency in assay [7] was 65%; in assay [10], 22%. Also, in assay [9], the Ratio turned out to be 2.4. Moreover, the figures for the IC50 in [11] and in [12] were 110 µM and 45 µM, respectively.
`O=C1CCCN1CC#CCN1CCCC1` [OXOTREMORINE]: the pD2 in assay [1] was 8; in [5], 7.1; in assay [2] it was 7.1. Also, the IC50 in [3] came to 113 nM; in assay [4], 2.8 nM.
With `CCN1C(=O)OC[C@@H]1Cc1cncn1C`, the results for the pD2 in assay [1], in assay [5] and in assay [2] were 6.1, 5.6 and 5.4, respectively. In addition, the results for the IC50 in assay [3] and in assay [4] were 288 nM and 100 nM, respectively.
For `CC[C@H]1C(O)SC[C@@H]1Cc1cncn1C` (stereo partly specified), the values for the pD2 in [1], in [5] and in assay [2] were 4.7, below 4 and below 4, respectively. Further, the IC50 amounted to 285 nM in assay [3] and 330 nM in [4].
`CC1OCC(CN(C)C)O1` (stereo unspecified): the figures for the pD2 in assay [1], in assay [5] and in assay [2] were 7.8, 6.3 and 7.5, respectively. Further, the half-maximal inhibitory concentration (IC50) in assay [3] worked out at 2100 nM; in assay [4], 6.4 nM.
In the case of `CC[C@@H]1COC[C@@H]1Cc1cncn1C`, the pD2 in [1] is 5.7; in assay [5] it was below 4; in [2], 4.5. Also, the concentration for half-maximal inhibition (IC50) came to 1800 nM in assay [3] and 445 nM in [4].
For `CC[C@H]1C(=O)N(C)C[C@@H]1Cc1cncn1C`, the pD2 in [1] was 4.4; in assay [5], 4.1; in assay [2], below 4. The IC50 in assay [3] and in assay [4] was 10000 nM each time.
Turning to `CC[C@H]1C(=O)SC[C@@H]1Cc1cncn1C`, the pD2 stood at 4.7 in [1], 5.4 in assay [5] and 4.8 in assay [2]. The results for the half-maximal inhibitory concentration (IC50) in assay [3] and in [4] were 775 nM and 320 nM, respectively.
Taken in the same sequence, the figures for `CC[C@@H]1C(=O)NC[C@@H]1Cc1cncn1C` were 5.2, 4.5, 4.2, 5150 nM and 845 nM.
As for `Cn1cncc1C[C@H]1COC(=O)C1` [PILOSININE], the pD2 is 4.2 in assay [1] and below 4 in assay [2]. The IC50 stood at 10000 nM in [3] and 2890 nM in assay [4].
With `CC[C@@H]1C(=O)SC[C@@H]1Cc1cncn1C`, the values for the pD2 in assay [1], in assay [5] and in assay [2] were 6.5, 5.3 and 5.3, respectively. Also, the half-inhibitory concentration (IC50) was 435 nM in [3] and 54 nM in assay [4].
For the molecule `Cc1ccc(C[N+](C)(C)C)o1`, the pD2 in assay [1] is 7.1; in assay [5] it was 5.8; in the assay listed under Cavia porcellus, 6.8. Besides, the 50% inhibitory concentration (IC50) in assay [3] was found to be 1410 nM; in [4], 5.6 nM.
As for `CC[C@@H]1C(O)SC[C@@H]1Cc1cncn1C` (stereo partly specified), the results for the pD2 in assay [1], in assay [5] and in assay [2] were 4.4, below 4 and below 4, respectively. The IC50 in [3] is 695 nM; in [4] it was 705 nM.
With `CC[C@H]1C(=O)NC[C@@H]1Cc1cncn1C`, the pD2 in assay [1] was determined as 5.6; in [5], 4.7; in assay [2], 4.6. The results for the IC50 in assay [3] and in assay [4] were 9950 nM and 800 nM, respectively.

Values taken from ChEMBL document CHEMBL1126174 (J Med Chem, 1992).
